PubChem BioAssay AID1963445 (Molecular Pharmacology Branch, DTP, NCI, 2024)

Tested on: MCF7 complex spheroid growth, % test/control
Test: Anticancer human tumor MCF7 cell line growth inhibition [Asc];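 note: spheroids exposed to compounds for 7 days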;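 for viability, T/C: 100% = DMSO vehicle control wells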
Settings: for IC50: curve of first compound; for viability, T/C: stronger effect = lower value
Procedure, shortened: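 Complex solid-tumor spheroids incorporating human endothelial and mesenchymal stem cells received single agents or combinations over half-log dilution ranges anchored to clinical Cmax.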

[1] = second compound 0.00949 µM, first compound 0.0316 µM
[2] = second compound 0.00949 µM, first compound 0.1 µM
[3] = second compound 0.00949 µM, first compound 0.316 µM
[4] = second compound 0.00949 µM, first compound 1 µM
[5] = second compound 0.03 µM, first compound 0.0316 µM
[6] = second compound 0.03 µM, first compound 0.1 µM
[7] = second compound 0.03 µM, first compound 0.316 µM
[8] = second compound 0.03 µM, first compound 1 µM
[9] = second compound 0.0949 µM, first compound 0.0316 µM
[10] = second compound 0.0949 µM, first compound 0.1 µM
[11] = second compound 0.0949 µM, first compound 0.316 µM
[12] = second compound 0.0949 µM, first compound 1 µM
[13] = second compound 0.3 µM, first compound 0.0316 µM
[14] = second compound 0.3 µM, first compound 0.1 µM
[15] = second compound 0.3 µM, first compound 0.316 µM
[16] = second compound 0.3 µM, first compound 1 µM
[17] = second compound 0.949 µM, first compound 0.0316 µM
[18] = second compound 0.949 µM, first compound 0.1 µM
[19] = second compound 0.949 µM, first compound 0.316 µM
[20] = second compound 0.949 µM, first compound 1 µM
[21] = second compound 3 µM, first compound 0.0316 µM
[22] = second compound 3 µM, first compound 0.1 µM
[23] = second compound 3 µM, first compound 0.316 µM
[24] = second compound 3 µM, first compound 1 µM

With C#Cc1c(F)ccc2cc(O)cc(-c3ncc4c(N5CC6CCC(C5)N6)nc(OCC56CCCN5CC(F)C6)nc4c3F)c12 (centres undefined) + CCN1C(C(=O)NC23CCC(C(=O)O)(CC2)CC3)C(c2cccc(Cl)c2F)C2(C(=O)Nc3cc(Cl)ccc32)C12CCCCC2 the IC50 (second compound 0.00949 µM) was > 10000 nM, the IC50 (second compound 0.03 µM) was > 10000 nM and the IC50 (second compound 0.0949 µM) was 59.8 nM. For the same compound, the IC50 (second compound 0.3 µM) was < 31.6 nM, the IC50 (second compound 0.949 µM) was < 31.6 nM and the IC50 (second compound 3 µM) was < 31.6 nM. It also gave a viability, T/C [1] of 92.6%, a viability, T/C [2] of 114% and a viability, T/C [3] of 111%. The viability, T/C [4] was 102%, the viability, T/C (second compound 0.00949 µM, first compound 3.16 µM) was 107% and the viability, T/C (second compound 0.00949 µM, first compound 10 µM) was 76.4%. For the same compound, the viability, T/C [5] was 100%, the viability, T/C [6] was 81.7% and the viability, T/C [7] was 91.8%. It also gave a viability, T/C [8] of 81.2%, a viability, T/C (second compound 0.03 µM, first compound 3.16 µM) of 102% and a viability, T/C (second compound 0.03 µM, first compound 10 µM) of 70.7%. For the same compound, the viability, T/C [9] was 47.6%, the viability, T/C [10] was 60.5% and the viability, T/C [11] was 36.4%. It also gave a viability, T/C [12] of 42.2%, a viability, T/C (second compound 0.0949 µM, first compound 3.16 µM) of 47.8% and a viability, T/C (second compound 0.0949 µM, first compound 10 µM) of 32.9%. The viability, T/C [13] was 27.1%, the viability, T/C [14] was 24.6% and the viability, T/C [15] was 28.6%. It also gave a viability, T/C [16] of 27.4%, a viability, T/C (second compound 0.3 µM, first compound 3.16 µM) of 23.5% and a viability, T/C (second compound 0.3 µM, first compound 10 µM) of 19.9%. It also gave a viability, T/C [17] of 17.1%, a viability, T/C [18] of 19.2% and a viability, T/C [19] of 14.1%. It also gave a viability, T/C [20] of 17.8%, a viability, T/C (second compound 0.949 µM, first compound 3.16 µM) of 16.3% and a viability, T/C (second compound 0.949 µM, first compound 10 µM) of 10.8%. It also gave a viability, T/C [21] of 12.8%, a viability, T/C [22] of 11.4% and a viability, T/C [23] of 11.5%. The viability, T/C [24] was 10.2%, the viability, T/C (second compound 3 µM, first compound 3.16 µM) was 14.1% and the viability, T/C (second compound 3 µM, first compound 10 µM) was 7.87%.

For CNC(C)C(=O)NC1CN(S(=O)(=O)c2cccc(S(=O)(=O)N3CCC4CCC(C(=O)NC(c5ccccc5)c5ccccc5)N4C(=O)C(NC(=O)C(C)NC)C3)c2)CCC2CCC(C(=O)NC(c3ccccc3)c3ccccc3)N2C1=O (centres undefined) + CCN1C(C(=O)NC23CCC(C(=O)O)(CC2)CC3)C(c2cccc(Cl)c2F)C2(C(=O)Nc3cc(Cl)ccc32)C12CCCCC2, the IC50 (second compound 0.00949 µM) was 4.89 nM, the IC50 (second compound 0.03 µM) was 4.19 nM and the IC50 (second compound 0.0949 µM) was < 3.16 nM. For the same compound, the IC50 (second compound 0.3 µM) was < 3.16 nM, the IC50 (second compound 0.949 µM) was < 3.16 nM and the IC50 (second compound 3 µM) was < 3.16 nM. For the same compound, the viability, T/C (second compound 0.00949 µM, first compound 0.00316 µM) was 69.8%, the viability, T/C (second compound 0.00949 µM, first compound 0.01 µM) was 17.4% and the viability, T/C [1] was 16.6%. It also gave a viability, T/C [2] of 14.7%, a viability, T/C [3] of 17.1% and a viability, T/C [4] of 15.5%. For the same compound, the viability, T/C (second compound 0.03 µM, first compound 0.00316 µM) was 61.2%, the viability, T/C (second compound 0.03 µM, first compound 0.01 µM) was 13.8% and the viability, T/C [5] was 13.1%. For the same compound, the viability, T/C [6] was 19%, the viability, T/C [7] was 15.5% and the viability, T/C [8] was 15.8%. The viability, T/C (second compound 0.0949 µM, first compound 0.00316 µM) was 32.7%, the viability, T/C (second compound 0.0949 µM, first compound 0.01 µM) was 8.77% and the viability, T/C [9] was 9.56%. It also gave a viability, T/C [10] of 11.9%, a viability, T/C [11] of 11.5% and a viability, T/C [12] of 16%. For the same compound, the viability, T/C (second compound 0.3 µM, first compound 0.00316 µM) was 15.1%, the viability, T/C (second compound 0.3 µM, first compound 0.01 µM) was 8.53% and the viability, T/C [13] was 9.64%. For the same compound, the viability, T/C [14] was 9.86%, the viability, T/C [15] was 11% and the viability, T/C [16] was 12.2%. The viability, T/C (second compound 0.949 µM, first compound 0.00316 µM) was 10.9%, the viability, T/C (second compound 0.949 µM, first compound 0.01 µM) was 10% and the viability, T/C [17] was 7.29%. For the same compound, the viability, T/C [18] was 8.83%, the viability, T/C [19] was 10.5% and the viability, T/C [20] was 12%. For the same compound, the viability, T/C (second compound 3 µM, first compound 0.00316 µM) was 11.6%, the viability, T/C (second compound 3 µM, first compound 0.01 µM) was 9.65% and the viability, T/C [21] was 9.98%. It also gave a viability, T/C [22] of 9.21%, a viability, T/C [23] of 12.1% and a viability, T/C [24] of 12.5%.
